Assay type in all cases: biochemical
One series deals with P. yoelii PNP. The series is described as follows: Phosphorylase activity assay, kinetic constants of recombinant PyPNP. The note with it: for Km / kcat: substrate of P. yoelii PNP, 50 mM KPO4, pH 7.4. An excerpt:
Expression, Purification, and Characterization of PyPNP. Recombinant PyPNP was expressed with a C-terminal 6×His tag and the c-myc epitope and purified from induced bacterial culture by nickel affinity chromatography under native conditions. Like PfPNP, recombinant PyPNP elutes from gel filtration chromatography as a single peak consisting of homohexameric protein (≈180 kDa; data not shown). On a denatured SDS-PAGE gel, the protein ran as a single band with a molecular mass of 29.94 kDa. […] The catalytic efficiencies (kcat/Km) of PyPNP for these substrates were very similar to those observed in PfPNP (Table 2).
Cloning and Expression of P. yoelii PNP. PyPNP was identified as a protein of 244 amino acids and 26.943 kDa by protein sequence homology to PfPNP (gene PY04622; PlasmoDB.org). The PyPNP open reading frame (ORF) sequence was amplified by PCR from genomic DNA of P. yoelii strain YM with primers PyPNP-F (5′-[…]-3′) (SEQ ID NO:8) and PyPNP-R (5′-[…]-3′) (SEQ ID NO:9). The 729 by PCR product was ligated into a pTrcHis2-TOPO vector (Invitrogen) and expressed in E. coli strain TOP 10. Recombinant PyPNP with a C-terminal 6×His tag and the c-myc epitope was induced with 1 mM IPTG at 37° C. for 10 h and purified by nickel chromatography. The purified PyPNP was >95% homogeneous based on denaturing polyacrylamide gel electrophoresis and staining with Coomassie blue. Protein concentration was measured by Bradford protein assay (Bio-Rad).
(§1) Enzymatic Assays and Determination of Kinetic Constants. All phosphorylase activity assays were performed with purified enzyme in 50 mM KPO4, pH 7.4 as described^1. Briefly, phosphorylysis of inosine, 2′-deoxyinosine, and 5′-methylthioinosine was measured in a coupled assay with 115 milliunits/ml xanthine oxidase to convert hypoxanthine into uric acid. Uric acid formation was followed by spectrophotometric measurement at 293 nm (E293=12.9 mM^−1 cm^−1). Phosphorylysis of guanosine to guanine was monitored by measuring the disappearance of guanosine at 258 nm (E258=5.2 mM^−1 cm^−1). Adenosine and 5′-methylthioadenosine phosphorylase activities were measured by following the disappearance of the substrate at 265 nm (E256=1.9 mM^−1 cm^−1). Uridine phosphorylase activity was measured by following the conversion of uridine to uracil at 272 nm (E260=2.9 mM^−1 cm^−1). The Michaelis constant Km was determined as the substrate concentration at ½ the maximum velocity. The kcat was determined for each substrate by fits of substrate saturation data to the Michaelis-Menten equation. Values for kcat assume one catalytic site per subunit and are expressed as moles of product per second per mole of subunit.

In the next series the target is T1, P. falciparum PNP (Plasmodium falciparum, UniProt Q8I3X4).
T1 sequence (Q8I3X4 1-245): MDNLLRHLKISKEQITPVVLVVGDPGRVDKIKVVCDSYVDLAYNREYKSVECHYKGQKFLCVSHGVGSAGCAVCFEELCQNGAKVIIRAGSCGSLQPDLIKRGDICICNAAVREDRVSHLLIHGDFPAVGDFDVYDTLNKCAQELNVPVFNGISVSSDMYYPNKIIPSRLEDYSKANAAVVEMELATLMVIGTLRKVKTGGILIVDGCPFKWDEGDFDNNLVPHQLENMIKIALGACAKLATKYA
The series is described as follows: Phosphorylase activity assay, kinetic constants of PfPNP. The note with it: substrate of P. falciparum PNP. As for the experimental part: as §1

Substrate in series [1]: Nc1nc2c(ncn2[C@@H]2O[C@H](CO)[C@@H](O)[C@H]2O)c(=O)[nH]1
The series is described as above. The conditions noted are these: other: substrate of P. falciparum PNP; pH 7.4. As for the experimental part:
as §1

Substrate in series [2]: OC[C@H]1O[C@@H](n2cnc3c(O)ncnc32)[C@H](O)[C@@H]1O
Described as above. The note with it: other: substrate of P. falciparum PNP; pH 7.4. Here is the method:
as §1

Substrate in series [3]: OC[C@H]1O[C@@H](n2cnc3c(O)ncnc32)C[C@@H]1O
Described as above. The note with it: other: substrate of P. falciparum PNP; pH 7.4. As for the experimental part: as §1

The text below walks through data of patent US20100330126A1, “Attenuated malaria blood-stage vaccine” (priority 2009, published 2010).

In general, Km refers to the concentration of substrate that gives half-maximal velocity. For orientation: kcat means the number of substrate molecules converted per active site and unit of time at saturation. Regarding `OC[C@H]1O[C@@H](n2cnc3c(O)ncnc32)C[C@@H]1O` [2′-deoxyinosine], in the series on P. yoelii PNP, the Michaelis constant (Km) was determined as 79 ± 10 µM and the turnover number (kcat) was 1.2 ± 0.1 s⁻¹.

Take `Nc1nc2c(ncn2[C@@H]2O[C@H](CO)[C@@H](O)[C@H]2O)c(=O)[nH]1` [Guanosine]: in the series with P. yoelii PNP, the Km was 8.9 ± 1.6 µM and the kcat was 3.8 ± 0.2 s⁻¹.

With `OC[C@H]1O[C@@H](n2cnc3c(O)ncnc32)[C@H](O)[C@@H]1O` [Inosine], in the series on P. yoelii PNP, the Km worked out at 8.6 ± 1.5 µM and the turnover number (kcat) worked out at 3.5 ± 0.1 s⁻¹.

In the case of `CSc1ncnc2c1ncn2[C@@H]1O[C@H](CO)[C@@H](O)[C@H]1O` [Methylthioinosine], the Michaelis-Menten constant (Km) in the series with P. yoelii PNP turned out to be 5 ± 0.4 µM; on P. falciparum PNP, 10.8 ± 0.9 µM. The values for the kcat with P. yoelii PNP and on P. falciparum PNP were 3.4 ± 0.1 s⁻¹ and 2.6 ± 0.8 s⁻¹, respectively.

On to `O=c1ccn([C@@H]2O[C@H](CO)[C@@H](O)[C@H]2O)c(=O)[nH]1` [uridine], for which the “PyPNP activity with substrate” value in the series with P. yoelii PNP (data not shown) is “no detectable activity”.

B1: P. falciparum PNP (Plasmodium falciparum 3D7) (protein)
chain: MDNLLRHLKISKEQITPVVLVVGDPGRVDKIKVVCDSYVDLAYNREYKSVECHYKGQKFLCVSHGVGSAGCAVCFEELCQNGAKVIIRAGSCGSLQPDLIKRGDICICNAAVREDRVSHLLIHGDFPAVGDFDVYDTLNKCAQELNVPVFNGISVSSDMYYPNKIIPSRLEDYSKANAAVVEMELATLMVIGTLRKVKTGGILIVDGCPFKWDEGDFDNNLVPHQLENMIKIALGACAKLATKYA
Usually kcat/Km stands for the turnover number divided by the Michaelis constant. Turning to B1, in series [1], the Km is 9.4 ± 1.2 µM, the kcat is 2.6 ± 0.5 s⁻¹ and the specificity constant (kcat/Km) worked out at 280000 M⁻¹ s⁻¹. Further, in series [2], the Km came to 4.7 ± 0.9 µM, the catalytic constant (kcat) was 1.1 ± 0.2 s⁻¹ and the kcat/Km was 230000 M⁻¹ s⁻¹. Besides, in series [3], the Km amounted to 91 ± 35 µM, the kcat was 0.9 ± 0.3 s⁻¹ and the kcat/Km was determined as 9800 M⁻¹ s⁻¹.
